{
  "source": "patent US20230027066A1",
  "about": "(Urovant Sciences GmbH, priority 2019, published 2023)",
  "key": {"[1]": {"system": "men and women with overactive bladder", "assay": "40-week extension study (52 weeks), efficacy", "assay_type": "in vivo, human", "excerpt": "All CFB calculations used the parent study Baseline value."}, "[2]": {"assay": "40-week extension study (52 weeks), adverse events", "excerpt": "Approximately 500 men and women with overactive bladder who completed 12 weeks in the parent study were permitted to enroll, at approximately 110 study sites in the U.S.\nSecondary endpoints were evaluation of CFB at Week 52 in average number of micturitions, Urge Urinary Incontinence (UUI) episodes, urgency episodes, and total urinary incontinence episodes. All CFB calculations used the parent study Baseline value."}, "[3]": {"settings": "52-Week treatment group, Full Analysis Set Extension"}, "[4]": {"settings": "52-Week treatment group, multiple imputation"}},
  "data": [
    {"smiles": "O=C(Nc1ccc(C[C@@H]2CC[C@H]([C@H](O)c3ccccc3)N2)cc1)[C@@H]1CCc2nccc(=O)n21", "note": "[Vibegron, (6S)-N-[4-[[(2S,5R)−5-[(R)-hydroxy(phenyl)methyl]pyrrolidin−2-yl]methyl]phenyl]−4-oxo−7,8-dihydro−6H-pyrrolo[1,2-a]pyrimidine−6-carboxamide]", "values": [
      {"measurement": "Total urinary incontinence episodes, Change from Baseline Mean at Week 52", "setting": "[1]; [3]", "value": "−2.5"},
      {"measurement": "Total urinary incontinence episodes, Week 52 Mean", "setting": "[1]; [3]", "value": 1.2},
      {"measurement": "UUI Episodes 75% Responders at Week 52", "setting": "[1]; [4]", "value": 61.0, "unit": "%"},
      {"measurement": "UUI Episodes 100% Responders at Week 52", "setting": "[1]; [4]", "value": 40.8, "unit": "%"},
      {"measurement": "Urgency Episodes 50% Responders at Week 52", "setting": "[1]; [4]", "value": 49.4, "unit": "%"},
      {"measurement": "UUI Episodes, Change from Baseline LS Mean (SE) at Week 52", "setting": "[1]; 52-Weeks arm, Full Analysis Set Extension for Incontinence", "value": "−2.2 (0.15)"},
      {"measurement": "Micturitions, Change from Baseline LS Mean (SE) at Week 52", "setting": "[1]; 52-Weeks arm, mixed model for repeated measures", "value": "−2.4 (0.24)"},
      {"measurement": "Urgency episodes, Change from Baseline LS Mean (SE) at Week 52", "setting": "[1]; 52-Weeks treatment, Full Analysis Set Extension", "value": "−3.4 (0.34)"},
      {"measurement": "Total urinary incontinence episodes, Change from Baseline LS Mean (SE) at Week 52", "setting": "[1]; 52-Weeks treatment, Full Analysis Set Extension for Incontinence", "value": "−2.5 (0.17)"},
      {"measurement": "% Responders, 50% Reduction in Total Inc at Week 52", "setting": "[1]; 52-week treatment, Table 97", "value": 71, "unit": "%"},
      {"measurement": "% Responders, 50% Reduction in UE at Week 52", "setting": "[1]; 52-week treatment, Table 97", "value": 49, "unit": "%"},
      {"measurement": "% Responders, 75% Reduction in UUI at Week 52", "setting": "[1]; 52-week treatment, Table 97", "value": 61, "unit": "%"},
      {"measurement": "% Responders, 100% Reduction in UUI at Week 52", "setting": "[1]; 52-week treatment, Table 97", "value": 41, "unit": "%"},
      {"measurement": "Micturitions, Least Squares Means CFB at Week 52", "setting": "[1]; 52-week treatment, Table 97", "value": "−2.4"},
      {"measurement": "Total Incontinence Episodes, Least Squares Means CFB at Week 52", "setting": "[1]; 52-week treatment, Table 97", "value": "−2.5"},
      {"measurement": "UUI Episodes, Least Squares Means CFB at Week 52", "setting": "[1]; 52-week treatment, Table 97", "value": "−2.2"},
      {"measurement": "Urgency Episodes (UE), Least Squares Means CFB at Week 52", "setting": "[1]; 52-week treatment, Table 97", "value": "−3.4"},
      {"measurement": "Volume Voided, mean change from baseline at Week 52", "setting": "[1]; 52-week treatment, Table 97", "value": 26, "unit": "mL"},
      {"measurement": "Discontinued the study: Death", "setting": "[2]; 40-Weeks arm", "value": "1 (1.1) n (%)"},
      {"measurement": "Discontinued the study: Death", "setting": "[2]; 52-Weeks arm", "value": "0 n (%)"},
      {"measurement": "SAEs resulting in death (not considered related by Investigator or Sponsor)", "setting": "[2]; Overall groups", "value": "1 (0.4) n (%)"},
      {"measurement": "Discontinued the study: Death", "setting": "[2]; Overall groups, Randomized Set Extension", "value": "1 (0.4) n (%)"},
      {"measurement": "Discontinued the study: Adverse Event", "setting": "[2]; both, human, in vivo", "value": "4 (1.5) n (%)"},
      {"measurement": "Patients with at least one treatment-emergent adverse event", "setting": "[2]; both, human, in vivo", "value": "171 (62.6) n (%)"},
      {"measurement": "Patients with at least one treatment-emergent serious AE", "setting": "[2]; both, human, in vivo", "value": "9 (3.3) n (%)"},
      {"measurement": "SAEs considered treatment-related by the investigator", "setting": "[2]; both, human, in vivo", "value": "1 (0.4) n (%)"},
      {"measurement": "SAEs: Hospitalization", "setting": "[2]; both, human, in vivo", "value": "7 (2.6) n (%)"},
      {"measurement": "SAEs: Other serious criteria", "setting": "[2]; both, human, in vivo", "value": "1 (0.4) n (%)"},
      {"measurement": "Discontinued the study: Adverse Event", "setting": "[2]; both, human, in vivo, 40 weeks", "value": "1 (1.1) n (%)"},
      {"measurement": "AE leading to discontinuation of study drug: Acute prerenal failure", "setting": "[2]; both, human, in vivo, 52 weeks", "value": "0 n (%)"},
      {"measurement": "AE leading to discontinuation of study drug: Amnesia", "setting": "[2]; both, human, in vivo, 52 weeks", "value": "1 (0.4) n (%)"},
      {"measurement": "AE leading to discontinuation of study drug: Any", "setting": "[2]; both, human, in vivo, 52 weeks", "value": "4 (1.5) n (%)"},
      {"measurement": "AE leading to discontinuation of study drug: Aortic stenosis", "setting": "[2]; both, human, in vivo, 52 weeks", "value": "0 n (%)"},
      {"measurement": "AE leading to discontinuation of study drug: Atrial fibrillation", "setting": "[2]; both, human, in vivo, 52 weeks", "value": "0 n (%)"},
      {"measurement": "AE leading to discontinuation of study drug: Blood creatinine increased", "setting": "[2]; both, human, in vivo, 52 weeks", "value": "1 (0.4) n (%)"},
      {"measurement": "AE leading to discontinuation of study drug: Blood urea increased", "setting": "[2]; both, human, in vivo, 52 weeks", "value": "1 (0.4) n (%)"},
      {"measurement": "AE leading to discontinuation of study drug: Cardiac failure", "setting": "[2]; both, human, in vivo, 52 weeks", "value": "0 n (%)"},
      {"measurement": "AE leading to discontinuation of study drug: Cardiomyopathy", "setting": "[2]; both, human, in vivo, 52 weeks", "value": "0 n (%)"},
      {"measurement": "AE leading to discontinuation of study drug: Chronic kidney disease", "setting": "[2]; both, human, in vivo, 52 weeks", "value": "0 n (%)"},
      {"measurement": "AE leading to discontinuation of study drug: Constipation", "setting": "[2]; both, human, in vivo, 52 weeks", "value": "1 (0.4) n (%)"},
      {"measurement": "AE leading to discontinuation of study drug: Diarrhea", "setting": "[2]; both, human, in vivo, 52 weeks", "value": "1 (0.4) n (%)"},
      {"measurement": "AE leading to discontinuation of study drug: Dizziness", "setting": "[2]; both, human, in vivo, 52 weeks", "value": "0 n (%)"},
      {"measurement": "AE leading to discontinuation of study drug: Dry eye", "setting": "[2]; both, human, in vivo, 52 weeks", "value": "0 n (%)"},
      {"measurement": "AE leading to discontinuation of study drug: Dyspnoea", "setting": "[2]; both, human, in vivo, 52 weeks", "value": "0 n (%)"},
      {"measurement": "AE leading to discontinuation of study drug: Haematuria", "setting": "[2]; both, human, in vivo, 52 weeks", "value": "0 n (%)"},
      {"measurement": "AE leading to discontinuation of study drug: Headache", "setting": "[2]; both, human, in vivo, 52 weeks", "value": "0 n (%)"},
      {"measurement": "AE leading to discontinuation of study drug: Intervertebral disc degeneration", "setting": "[2]; both, human, in vivo, 52 weeks", "value": "0 n (%)"},
      {"measurement": "AE leading to discontinuation of study drug: Mitral valve incompetence", "setting": "[2]; both, human, in vivo, 52 weeks", "value": "0 n (%)"},
      {"measurement": "AE leading to discontinuation of study drug: Osteoarthritis", "setting": "[2]; both, human, in vivo, 52 weeks", "value": "0 n (%)"},
      {"measurement": "AE leading to discontinuation of study drug: Pulmonary embolism", "setting": "[2]; both, human, in vivo, 52 weeks", "value": "0 n (%)"},
      {"measurement": "AE leading to discontinuation of study drug: Sinus tachycardia", "setting": "[2]; both, human, in vivo, 52 weeks", "value": "0 n (%)"},
      {"measurement": "AE leading to discontinuation of study drug: Tricuspid valve incompetence", "setting": "[2]; both, human, in vivo, 52 weeks", "value": "0 n (%)"},
      {"measurement": "AE: Anaemia", "setting": "[2]; both, human, in vivo, 52 weeks", "value": "7 (2.6) n (%)"},
      {"measurement": "AE: Atrial fibrillation", "setting": "[2]; both, human, in vivo, 52 weeks", "value": "0 n (%)"},
      {"measurement": "AE: Back pain", "setting": "[2]; both, human, in vivo, 52 weeks", "value": "6 (2.2) n (%)"},
      {"measurement": "AE: Blood pressure increased", "setting": "[2]; both, human, in vivo, 52 weeks", "value": "2 (0.7) n (%)"},
      {"measurement": "AE: Bronchitis", "setting": "[2]; both, human, in vivo, 52 weeks", "value": "8 (2.9) n (%)"},
      {"measurement": "AE: Constipation", "setting": "[2]; both, human, in vivo, 52 weeks", "value": "10 (3.7) n (%)"},
      {"measurement": "AE: Diarrhea", "setting": "[2]; both, human, in vivo, 52 weeks", "value": "13 (4.8) n (%)"},
      {"measurement": "AE: Dizziness", "setting": "[2]; both, human, in vivo, 52 weeks", "value": "4 (1.5) n (%)"},
      {"measurement": "AE: Dry mouth", "setting": "[2]; both, human, in vivo, 52 weeks", "value": "5 (1.8) n (%)"},
      {"measurement": "AE: Fatigue", "setting": "[2]; both, human, in vivo, 52 weeks", "value": "3 (1.1) n (%)"},
      {"measurement": "AE: Headache", "setting": "[2]; both, human, in vivo, 52 weeks", "value": "15 (5.5) n (%)"},
      {"measurement": "AE: Hyperglycemia", "setting": "[2]; both, human, in vivo, 52 weeks", "value": "7 (2.6) n (%)"},
      {"measurement": "AE: Hypertension", "setting": "[2]; both, human, in vivo, 52 weeks", "value": "24 (8.8) n (%)"},
      {"measurement": "AE: Hypotension", "setting": "[2]; both, human, in vivo, 52 weeks", "value": "0 n (%)"},
      {"measurement": "AE: Musculoskeletal pain", "setting": "[2]; both, human, in vivo, 52 weeks", "value": "6 (2.2) n (%)"},
      {"measurement": "AE: Nasopharyngitis", "setting": "[2]; both, human, in vivo, 52 weeks", "value": "13 (4.8) n (%)"},
      {"measurement": "AE: Nausea", "setting": "[2]; both, human, in vivo, 52 weeks", "value": "10 (3.7) n (%)"},
      {"measurement": "AE: Residual urine volume increased", "setting": "[2]; both, human, in vivo, 52 weeks", "value": "7 (2.6) n (%)"},
      {"measurement": "AE: Syncope", "setting": "[2]; both, human, in vivo, 52 weeks", "value": "0 n (%)"},
      {"measurement": "AE: Tachycardia (Sinus Tachycardia)", "setting": "[2]; both, human, in vivo, 52 weeks", "value": "1 (0.4) n (%)"},
      {"measurement": "AE: Upper respiratory tract infection", "setting": "[2]; both, human, in vivo, 52 weeks", "value": "10 (3.7) n (%)"},
      {"measurement": "AE: Urinary retention", "setting": "[2]; both, human, in vivo, 52 weeks", "value": "3 (1.1) n (%)"},
      {"measurement": "AE: Urinary tract infection", "setting": "[2]; both, human, in vivo, 52 weeks", "value": "18 (6.6) n (%)"},
      {"measurement": "Discontinued the study: Adverse Event", "setting": "[2]; both, human, in vivo, 52 weeks", "value": "3 (1.6) n (%)"}
    ]}
  ]
}
